Measurements as given in patent publication US20250367164A1, “THERAPEUTIC COMPOSITIONS FOR SKIN DISORDERS AND WOUND REPAIR” (UNIVERSITY OF MIAMI, priority 2022, published 2025).

What was measured:
MRSA USA300 = assay: In vitro MRSA internalization in human keratinocytes; format: cell-based, MRSA USA300 in primary human keratinocytes
Description: For all internalization assays, MRSA USA300 strain was used. In vitro pathogen internalization: Primary human keratinocytes were seeded at 5×10^4 in triplicates and allowed to adhere overnight. The following day, they were inoculated with MRSA USA300 conjugated to a pH sensitive dye (pHrodo iFL STP ester, Life Technologies) at 1×10^6 CFU/ml for 1 hr in presence or absence of 1 mM MβCD, prior to washing with PBS. They were then either subject to live cell imaging or washed with lysostaphin for 1 hr (in order to kill any extracellular bacteria), lysed in hypotonic solution and seeded onto blood agar plates in serial dilutions in order to determine relative CFU counts. Ex vivo human skin: Human skin specimens from reduction surgery were obtained and wounded. Briefly, using a biopsy punch 4-mm acute wounds were made in the skin specimens (n=4 per treatment), and either pre-treated in presence or absence of 2 mM MβCD, followed by inoculation with 10 ul of MRSA 10^8 CFU/ml for 24 hrs. Skin was then washed with PBS, incubated with lysostaphin for Ihr in order to kill any extracellular bacteria, lysed with hypotonic solution and subsequent lysate seeded onto blood agar plates in serial dilutions. […]

VEGF = VEGF ELISA on snap frozen mouse wounds; format: in vivo, mice; conditions: same mouse wounds, FIG. 14
Description: Amount of VEGF in snap frozen mouse wounds was analyzed using VEGF ELISA as per manufacturer's instructions. Up to 8 wounds were utilized per condition in duplicates and amount of VEGF quantified using internal standards provided by the kit.
ELISA was used to measure levels of VEGF from the same wounds in order to validate that the upregulation at the mRNA level coincides with increased VEGF protein level.

[1] = system: 5-mm round excisional dorsal wounds of db/db mice; assay: Splinted excisional wound healing in db/db mice treated with hydrogel scaffolds; format: in vivo; conditions: FIG. 10
Description: All animal care and use procedures were approved by the University of Miami Institutional Animal Care and Use Committee (IACUC #19-097). Under anesthesia, 12×7-weeks of age female db/db mice had their dorsal skin hair clipped, depilated and their fasting blood glucose level measured for 3 consecutive days, to validate hyperglycemia (>300 mg/dL was deemed as hyperglycemic). Subsequently, mice's dorsal skin was cleaned with antiseptic solution and four 5-mm round excisional wounds were made, two on each side of the dorsal midline (n=8 wounds per treatment). Dorsal wounds were treated with cylindrical hydrogel scaffolds of 8 mm×2 mm for either 7 or 16 days. Same hydrogel scaffold fabrication procedure was employed (as previously described) and with the same treatment and control formulations as the ex vivo human skin wound models. Scaffolds were fixed on top of the wounds with 14-mm square splints containing a 10 mm circular central opening. Cyanoacrylate glue was used to secure the splints just long enough for 4 non-continuous sutures to adhere the […] to the wound and prevent wound contraction. […] Diabetic mice wounds' closure rate was assessed by histologically analyzing re-epithelialization and epidermal thickness through H&E staining with an Olympus VS120 microscope (Olympus, Tokyo, JPN) and Image J software (NIH, MD, USA). […]

methyl-β-cyclodextrin [MβCD]
CFU counts of internalized bacteria (MRSA USA300; Cav1 overexpressing and Cav1 knockout human keratinocytes, cell lysate on blood agar plates): lowered the CFU counts | intracellular MRSA (MRSA USA300; treatment administered after MRSA infection, keratinocytes): expelled a majority of intracellular MRSA

hydroxypropyl-β-cyclodextrin [HβCD]
levels of VEGF (VEGF): increased levels of VEGF

platelet derived growth factor [PDGF]
wound closure at the conclusion of the experiment [1]: not fully closed
